Source: paper PMC5715787, “Structural basis for antibody recognition of the NANP repeats in Plasmodium falciparum circumsporozoite protein” (Proceedings of the National Academy of Sciences of the …, 2017)

Experiments:
Fab311 = assay: ITC affinity measurement of peptides to Fab311; assay type: binding, human; settings: for affinity/Kd compared with the (NPNA)3 peptide: Fab311, ITC, change vs (NPNA)3; for Kd / No. of sites: ITC, 25 °C, Dulbecco's PBS, Fab311 10.3 μM in cell, peptide 89–122 μM in syringe, single-site model, average and SD of triplicate experiments
Description: (§1) ITC affinity measurements were performed using a MicroCal Auto-iTC200 instrument (GE Healthcare). […]
(§2) General. All peptides were ordered from Innopep Inc. with a 10-μg/mL solution of the Fab of interest in blocking buffer. The purity of >98% and contained chlorine counter ions. The pep- membrane was then washed three times for 5 min each in TBST tides have N-terminal acetylation and C-terminal amidation to buffer, after which it was incubated for 2 h with an anti-human eliminate charges at the peptide termini. Fab genes were codon Fab secondary antibody conjugated to HRP (Sigma-Aldrich) at a optimized, synthesized, and cloned into pHCMV3 vectors by 1:20,000 dilution in blocking buffer. […]
(§3) Antibodies 311 and 317 were selected forITC. A MicroCal Auto-iTC200 (GE Healthcare) was used to structural studies because of their functional activity, high avidity perform ITC measurements. Before the experiments, all proteins index, and similar heavy-chain germline genes. were extensively dialyzed against Dulbecco’s PBS (Thermo Evaluation of the Protective Activity of mAbs. mAbs (100 μg for Fischer). The peptides were placed in the syringe at a concentration Ab311 and 300 μg for Ab317 and Ab2A10) against the NANP of 122μM for Ac-NPNANPNA-NH2, 116 μM for Ac-repeats of P. falciparum CSP were administered to 7- to 8-wk-old NPNANPNANPNA-NH2,89μM for Ac-[…]- […]
(§4) C57BL/6 mice (five mice per group) by i.v. injection [in 200 μLof NH2, and 110 μM for Ac-DPNANPNVDPNA-NH2, whereas the […]
(§5) PBS (pH 7.4)]. The mice were challenged 5–10 min later by i.v. concentrations of Fab fragments in the cell were 10.3 and 9.7 μM injection with 2,000 P. berghei chimeric sporozoites expressing for Fab311 and Fab317, respectively. The Fab and peptide P. falciparum CSP (3D7 strain) generated as previously described concentrations were determined by UV absorbance at 280 nm (22). Forty hours later, livers were harvested, and RNA was and 205 nm. Molar extinction coefficients for the peptides were isolated to quantify the malaria-specific 18s rRNA levels by real- estimated using a previously published method (35). Experi-time PCR (34). Inhibition of parasite development was calcu- ments were carried out in triplicate at 25 °C, except for lated by comparing the parasite liver burdens of experimental Fab317 binding to Ac-[…]-NH2, which was […]
(§6) and naive control mice. The statistical analyses were done with done in duplicate, and consisted of 16 injections of 2.45 μL each, the Mann–Whitney U test. Data were plotted using GraphPad with injection duration of 4.9 s, inject io n interval of 180 s, and Prism 6.0 software. No samples were excluded from statistical reference power of 5 μCa l. Fi tt in g of the integrate d titrati on analyses. peaks was performed with Origin 7.0 software using a single-site binding model. The first data point and any outliers were Expression and Purification of Recombinant CSP. The rsCSP con- excluded from the fit. […]
(§7) Two 1-L NaCl, 2.7 mM KCl, pH 8.0) with a 5:1 molar ratio of (NPNA)3 cultures were inoculated the next day with 25 mL overnight peptide to Fab. Crystals were grown using sitting-drop vapor culture and were grown at 37 °C. When the optical density at diffusion with a well solution containing 0.1 M MES (pH 6.0), 600 nm reached a value of 1, the cultures were induced with 36% PEG400, 5% PEG3000 for the Fab311–peptide complex, 1 mM isopropyl β-D-1-thiogalactopyranoside for 6 h. The cells and 0.1 M sodium citrate (pH 4.0), 1 M lithium chloride, 20% then were harvested and lysed by microfluidization. The lysate PEG6000 for the Fab317–peptide complex. Crystals were grown was incubated overnight with Ni cOmplete resin (Roche) and at 298 K and typically appeared within 3 d. Fab311–peptide was eluted using a buffer containing 200 mM imidazole. Typi- crystals were cryo-cooled without additional cryoprotection, cally, 10 mg of protein was obtained per 2 L of culture. Samples while Fab317–peptide crystals were cryoprotected by soaking in […]

Fab317 = assay: ITC affinity measurement of peptides to Fab317; assay type: binding, human; settings: for Kd / No. of sites: ITC, 25 °C, Dulbecco's PBS, Fab317 9.7 μM in cell, single-site model
Description: as §1, §2, §3, §4, §5, §6, §7

[1] = peptide 110–122 μM in syringe, average and SD of triplicate experiments
[2] = peptide 89 μM in syringe, duplicate experiments

Compound | affinity/Kd compared with the (NPNA)3 peptide (Fab311) | Kd (Fab311) | No. of sites (Fab311) | Kd (Fab317; [1]) | No. of sites (Fab317; [1]) | Kd increase compared with (NPNA)3 (Fab317; Fab317, ITC, vs (NPNA)3) | relative affinity (in words) (Fab317; Fab317, ITC, NVDP-containing peptides, comparator not clearly stated) | Kd (Fab317; [2]) | No. of sites (Fab317; [2])
Ac-DPNANPNVDPNA-NH2 [DPNANPNVDPNA, Ac-DPNANPNVDPNA-NH2] | approximately fivefold lower affinity | 1370 ± 390 nM | 1.20 ± 0.03 | 448 ± 68 nM | 1.64 ± 0.05 |  |  |  | 
CC(=O)N[C@@H](CC(N)=O)C(=O)N1CCC[C@H]1C(=O)N[C@@H](CC(N)=O)C(=O)N[C@@H](C)C(=O)N[C@@H](CC(N)=O)C(=O)N1CCC[C@H]1C(=O)N[C@@H](CC(N)=O)C(=O)N[C@@H](C)C(=O)N[C@@H](CC(N)=O)C(=O)N1CCC[C@H]1C(=O)N[C@@H](CC(N)=O)C(=O)N[C@@H](C)C(N)=O [(NPNA)3, Ac-NPNANPNANPNA-NH2] |  | 305 ± 60 nM | 0.74 ± 0.02 | 78 ± 16 nM | 1.27 ± 0.02 |  |  |  | 
CC(=O)N[C@@H](CC(N)=O)C(=O)N1CCC[C@H]1C(=O)N[C@@H](CC(N)=O)C(=O)N[C@@H](C)C(=O)N[C@@H](CC(N)=O)C(=O)N1CCC[C@H]1C(=O)N[C@@H](CC(N)=O)C(=O)N[C@@H](C)C(N)=O [(NPNA)2, Ac-NPNANPNA-NH2] | almost identical to that of the (NPNA)3 peptide | 296 ± 19 nM | 1.50 ± 0.08 | 173 ± 8 nM | 1.41 ± 0.05 | 2.2 fold |  |  | 
Ac-NPNVDPNANPNV-NH2 [NPNVDPNANPNV, Ac-NPNVDPNANPNV-NH2] | approximately fivefold lower affinity | 1790 ± 189 nM | 1.24 ± 0.02 |  |  |  | substantially lower | 12100 ± 2490 nM | 1.72 ± 0.13
